Results from PubChem BioAssay AID192 (DTP/NCI, 2004).
“And” between values parts separate entries of the source, which are not always exact repeats. Equal entries are not always repeated. Inconclusive results and toxic doses are left out. How the source made its calls: active means survival T/C of 150% or more; inactive means T/C below 125% in these data.

Tested on: BDF1 mice, B16 melanoma ip, median survival T/C
Experiment: NCI In Vivo Anticancer Drug Screen. Data for tumor model B16 Melanoma (intraperitoneal) in B6D2F1 (BDF1) mice
Conditions: endpoint: median survival time, higher = longer survival
In short: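 Values are ratios of treated (T) to vehicle-control (C) measurements of survival or tumor size in tumor-bearing mice.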

[1] = dose: 6.25 mg/kg/injection, schedule: Q01DX009 (ip), vehicle: saline
[2] = dose: 25.0 mg/kg/injection, schedule: Q01DX009 (ip), vehicle: saline
[3] = dose: 100.0 mg/kg/injection, schedule: Q01DX009 (ip), vehicle: saline
[4] = dose: 50.0 mg/kg/injection, schedule: Q01DX009 (ip), vehicle: saline
[5] = dose: 3.12 mg/kg/injection, schedule: Q01DX009 (ip), vehicle: saline
[6] = dose: 100.0 mg/kg/injection, schedule: Q01DX009 (ip), vehicle: Klucel (hydroxypropylcellulose) (HPC)

Measured: T/C

CC(C)CNc1ccc(S(=O)(=O)c2ccc(NCC(C)C)c([N+](=O)[O-])c2)cc1[N+](=O)[O-]
inactive: dose: 3.13 mg/kg/injection, schedule: Q01DX009 (ip), vehicle: saline with Tween-80 100 % of control | dose: 6.25 mg/kg/injection, schedule: Q01DX009 (ip), vehicle: saline with Tween-80 93 % of control | [1] 93 % of control | dose: 12.5 mg/kg/injection, schedule: Q01DX009 (ip), vehicle: saline with Tween-80 89 % of control | [2] 88 % of control

NC(=O)c1ccc(N)nc1
inactive: dose: 0.09 mg/kg/injection, schedule: Q01DX009 (ip), vehicle: saline 100 % of control | dose: 0.18 mg/kg/injection, schedule: Q01DX009 (ip), vehicle: saline 86 % of control and 107 % of control | dose: 0.37 mg/kg/injection, schedule: Q01DX009 (ip), vehicle: saline 113 % of control and 114 % of control | dose: 0.75 mg/kg/injection, schedule: Q01DX009 (ip), vehicle: saline 102 % of control | dose: 1.5 mg/kg/injection, schedule: Q01DX009 (ip), vehicle: saline 112 % of control and 115 % of control | dose: 2.0 mg/kg/injection, schedule: Q01DX009 (ip), vehicle: saline 100 % of control | dose: 3.12 mg/kg/injection, schedule: Q04DX003 (ip), vehicle: saline 111 % of control | dose: 6.25 mg/kg/injection, schedule: Q04DX003 (ip), vehicle: saline 107 % of control

Cn1c(=O)c2c(ncn2CCO)n(C)c1=O
inactive: [3] 120 % of control | dose: 200.0 mg/kg/injection, schedule: Q01DX009 (ip), vehicle: saline 122 % of control

NC(CSCCc1ccccn1)C(=O)O (stereo not given)
inactive: [2] 100 % of control | [4] 100 % of control | [3] 110 % of control | dose: 100.0 mg/kg/injection, schedule: Q04DX003 (ip), vehicle: saline 104 % of control | dose: 200.0 mg/kg/injection, schedule: Q04DX003 (ip), vehicle: saline 104 % of control | dose: 400.0 mg/kg/injection, schedule: Q04DX003 (ip), vehicle: saline 104 % of control

Clc1ccc2c(c1)-c1ccccc1C1=NCCN12
inactive: dose: 5.0 mg/kg/injection, schedule: Q01DX009 (ip), vehicle: saline 108 % of control | dose: 10.0 mg/kg/injection, schedule: Q01DX009 (ip), vehicle: saline 118 % of control

CS(=O)(=O)Nc1ccccc1N
inactive: dose: 1.56 mg/kg/injection, schedule: Q01DX009 (ip), vehicle: saline 95 % of control | [5] 99 % of control | [1] 98 % of control

COC(=O)C1=CCCN(C)C1
inactive: [5] 100 % of control | [1] 115 % of control | dose: 12.5 mg/kg/injection, schedule: Q01DX009 (ip), vehicle: saline 100 % of control | [2] 92 % of control | [4] 115 % of control

CCc1cc(Cc2cc(CC)cc(C(C)(C)C)c2O)c(O)c(C(C)(C)C)c1
inactive: [6] 88 % of control | dose: 200.0 mg/kg/injection, schedule: Q01DX009 (ip), vehicle: Klucel (hydroxypropylcellulose) (HPC) 88 % of control | dose: 400.0 mg/kg/injection, schedule: Q01DX009 (ip), vehicle: Klucel (hydroxypropylcellulose) (HPC) 89 % of control

Nc1ncnc2nc[nH]c12
inactive: dose: 32.0 mg/kg/injection, schedule: Q01DX009 (ip), vehicle: Klucel (hydroxypropylcellulose) (HPC) 97 % of control | dose: 64.0 mg/kg/injection, schedule: Q01DX009 (ip), vehicle: Klucel (hydroxypropylcellulose) (HPC) 98 % of control | dose: 64.0 mg/kg/injection, schedule: Q01DX009 (ip), vehicle: saline with Tween-80 98 % of control | dose: 128.0 mg/kg/injection, schedule: Q01DX009 (ip), vehicle: Klucel (hydroxypropylcellulose) (HPC) 89 % of control

Nc1ccccc1N
inactive: dose: 12.5 mg/kg/injection, schedule: Q01DX009 (ip), vehicle: Klucel (hydroxypropylcellulose) (HPC) 96 % of control | dose: 25.0 mg/kg/injection, schedule: Q01DX009 (ip), vehicle: Klucel (hydroxypropylcellulose) (HPC) 98 % of control | dose: 25.0 mg/kg/injection, schedule: Q02DX009 (ip), vehicle: saline with Tween-80 106 % of control | dose: 50.0 mg/kg/injection, schedule: Q01DX009 (ip), vehicle: Klucel (hydroxypropylcellulose) (HPC) 98 % of control | [6] 102 % of control | dose: 100.0 mg/kg/injection, schedule: Q02DX009 (ip), vehicle: saline with Tween-80 100 % of control | dose: 200.0 mg/kg/injection, schedule: Q02DX009 (ip), vehicle: saline with Tween-80 100 % of control
